The target of one series is T1, PPARα (Homo sapiens, UniProt Q07869).
T1 construct: PPARα (aa 167 to 469); made in house; host or cells: E. coli BL21 (pLysS)
T1 sequence (Q07869 167-468 limits assumed): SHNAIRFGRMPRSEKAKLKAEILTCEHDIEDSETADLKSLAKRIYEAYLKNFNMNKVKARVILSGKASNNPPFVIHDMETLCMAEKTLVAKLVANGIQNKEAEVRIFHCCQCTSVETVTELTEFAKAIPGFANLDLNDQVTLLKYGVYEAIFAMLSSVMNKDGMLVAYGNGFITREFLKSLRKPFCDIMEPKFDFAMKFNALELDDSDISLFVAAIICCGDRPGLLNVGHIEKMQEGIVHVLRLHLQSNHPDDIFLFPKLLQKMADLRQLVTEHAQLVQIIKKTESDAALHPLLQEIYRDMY
The experiment in a line: PPARα radioligand binding assay (scintillation proximity, GST-PPARα-LBD). The settings on record: GST-PPARα-LBD fusion protein, SPA radioligand binding. The source says: (§1) Background information on the performed assays can be found in: Nichols J S et al. “Development of a scintillation proximity assay for peroxisome proliferator-activated receptor gamma ligand binding domain”, (1998) Anal. Biochem. 257:112-119.
(§2) Full-length cDNA clones for humans PPARδ and PPARα and mouse PPARγ were obtained by RT-PCR from human adipose and mouse liver cRNA, respectively, cloned into plasmid vectors and verified by DNA sequencing. Bacterial and mammalian expression vectors were constructed to produce glutathione-s-transferase (GST) and Gal4 DNA binding domain proteins fused to the ligand binding domains (LBD) of PPARδ (aa 139 to 442), PPARγ (aa 174 to 476) and PPARα (aa 167 to 469). To accomplish this, the portions of the cloned sequences encoding the LBDs were amplified from the full-length clones by PCR and then subcloned into the plasmid vectors. Final clones were verified by DNA sequence analysis.
(§3) Induction, expression, and purification of GST-LBD fusion proteins were performed in E. coli strain BL21 (pLysS) cells by standard methods (Ref: Current Protocols in Molecular Biology, Wiley Press, edited by Ausubel et al.).
(§4) Radioligand Binding Assay
(§5) PPARα receptor binding was assayed in TKE50 (50 mM Tris-HCl, pH 8, 50 mM KCl, 2 mM EDTA, 0.1 mg/ml fatty acid-free BSA and 10 mM DTT). For each 96 well reaction an 140 ng equivalent of GST-PPARα-LBD fusion protein was bound to 10 μg SPA beads (PharmaciaAmersham) in a final volume of 50 μl by shaking. The resulting slurry was incubated for 1 h at RT and centrifuged for 2 min at 1300 g. The supernatant containing unbound protein was removed and the semidry pellet containing the receptor-coated beads was resolved in 50 μl of TKE. […] All binding assays were performed in 96 well plates and the amount of bound ligand measured on a Packard TopCount using OptiPlates (Packard). Nonspecific binding was determined in the presence of 10^−4 M unlabelled compound. […]
A general note: In a scintillation proximity assay essentially only radioactivity close to the scintillant gives light.

The target of a further series is T2, PPARγ (Mus musculus, UniProt P37238).
T2 construct: PPARγ (aa 174 to 476); made in house; host or cells: E. coli BL21 (pLysS)
T2 sequence (P37238 204-505): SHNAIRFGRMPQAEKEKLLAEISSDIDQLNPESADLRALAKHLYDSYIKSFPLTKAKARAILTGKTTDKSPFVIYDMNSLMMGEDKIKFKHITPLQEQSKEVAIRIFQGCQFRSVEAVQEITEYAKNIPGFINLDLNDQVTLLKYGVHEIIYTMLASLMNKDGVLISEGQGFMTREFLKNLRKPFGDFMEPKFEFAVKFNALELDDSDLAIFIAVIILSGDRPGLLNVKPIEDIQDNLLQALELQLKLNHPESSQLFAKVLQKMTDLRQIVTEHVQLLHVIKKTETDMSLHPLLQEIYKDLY
Description: PPARγ radioligand binding assay (scintillation proximity, GST-PPARγ-LBD). The settings on record: GST-PPARγ-LBD fusion protein, SPA radioligand binding.
From the text: as §1, §2, §3, §4
as §5, with “PPARγ” for “PPARα”, “GST-PPARγ-LBD” for “GST-PPARα-LBD”, “ul” for “μl”

The next series addresses T3, PPARδ (Homo sapiens, UniProt Q03181).
T3 construct: PPARδ (aa 139 to 442); made in house; host or cells: E. coli BL21 (pLysS)
T3 sequence (Q03181 139-441 limits assumed): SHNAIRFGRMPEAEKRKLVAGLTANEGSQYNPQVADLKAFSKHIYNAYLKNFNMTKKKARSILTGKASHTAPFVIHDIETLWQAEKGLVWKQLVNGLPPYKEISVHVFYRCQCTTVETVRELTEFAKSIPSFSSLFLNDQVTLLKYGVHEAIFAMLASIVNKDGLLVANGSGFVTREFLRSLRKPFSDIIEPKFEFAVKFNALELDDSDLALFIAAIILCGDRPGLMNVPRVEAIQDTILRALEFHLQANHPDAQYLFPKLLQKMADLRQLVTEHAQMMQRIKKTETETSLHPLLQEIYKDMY
The experiment in a line: PPARδ radioligand binding assay (scintillation proximity, GST-PPARδ-LBD). The settings on record: GST-PPARδ-LBD fusion protein, SPA radioligand binding.
From the text: as §1, §2, §3, §4
PPARδ receptor binding was assayed in HNM10 (50 mM Hepes, pH 7.4, 10 mM NaCl, 5 mM MgCl2, 0.15 mg/ml fatty acid-free BSA and 15 mM DTT). For each 96 well reaction a 500 ng equivalent of GST-PPARδ-LBD fusion protein and radioligand, e.g. 20000 dpm {2-methyl-4-[4-methyl-2-(4-trifluoromethyl-phenyl)-thiazol-5-yl-ditritiomethylsulfanyl]-phenoxy}-acetic acid, was bound to 10 μg SPA beads (PharmaciaAmersham) in a final volume of 50 μl by shaking. The resulting slurry was incubated for 1 h at RT and centrifuged for 2 min at 1300 g. […] Radioligand was added and the reaction incubated at RT for 1 h and scintillation proximity counting performed in the presence of test compounds was determined. All binding assays were performed in 96 well plates and the amount of bound ligand was measured on a Packard TopCount using OptiPlates (Packard). […]

Take `Cc1nc(-c2ccc(C(F)(F)F)cc2)ccc1C(C)N(C)c1ccc(OCC(=O)O)c2ccccc12` (racemic) [Example 1, [rac]-[4-(Methyl-{1-[2-methyl-6-(4-trifluoromethyl-phenyl)-pyridin-3-yl]-ethyl}-amino)-naphthalen-1-yloxy]-acetic acid]: the melting point (commonly the temperature of the solid-liquid transition) is 157 to 158 °C.
The same measure, in the same setting: for `CCC(c1ccc(-c2cccc(C(F)(F)F)c2)nc1C)N(C)c1ccc(OCC(=O)O)c2ccccc12` (racemic) [Example 2, [rac]-[4-(Methyl-{1-[2-methyl-6-(3-trifluoromethyl-phenyl)-pyridin-3-yl]-propyl}-amino)-naphthalen-1-yloxy]-acetic acid] the value was 76 to 78 °C.
In the case of `CCCC(c1ccc(-c2cccc(C(F)(F)F)c2)nc1C)N(C)c1ccc(OCC(=O)O)c2ccccc12` (racemic) [Example 3, [rac]-[4-(Methyl-{1-[2-methyl-6-(3-trifluoromethyl-phenyl)-pyridin-3-yl]-butyl}-amino)-naphthalen-1-yloxy]-acetic acid], the IC50 (as a rule, the midpoint of a concentration-inhibition curve) at PPARα is 3580 nM; at PPARγ, above 10000 nM; at PPARδ, 65 nM.
For `COC(Cc1cc(OCCc2ccc(-c3ccc(C(F)(F)F)cc3)nc2C)c2ccccc2c1)C(=O)O` (racemic) [Example 4, [rac]-2-Methoxy-3-(4-{2-[2-methyl-6-(4-trifluoromethyl-phenyl)-pyridin-3-yl]-ethoxy}-naphthalen-2-yl)-propionic acid], in that order: 37 nM, above 10000 nM and 295 nM.
For `Cc1nc(-c2ccc(C(F)(F)F)cc2)ccc1COc1ccc(CCC(=O)O)c2c1CCCC2` [Example 5, 3-{4-[2-Methyl-6-(4-trifluoromethyl-phenyl)-pyridin-3-ylmethoxy]-5,6,7,8-tetrahydro-naphthalen-1-yl}-propionic acid], in that order: 716 nM, above 10000 nM and 106 nM.

The values are drawn from patent US7495001B2, “Benzannelated derivatives, their manufacture and use as pharmaceutical agents” (Hoffmann-La Roche Inc., priority 2003, dated 2009).
